Experimental data: patent publication US12581252B2, “Substituted pyrrolo[3,4-b]pyridines as PI3K-α inhibitors” (Relay Therapeutics, Inc., priority 2020, dated 2026)

How the values were obtained:
cells = conditions: Homo sapiens, MCF-10A, read-out: MCF10A IC50
H1047R PIK3CA enzyme = H1047R PIK3CA enzyme (Homo sapiens, UniProt P42336, H1047R); assay: ADP-Glo Biochemical PIK3CA Kinase Assay
Chain of H1047R PIK3CA enzyme (P42336 whole entry H1047R): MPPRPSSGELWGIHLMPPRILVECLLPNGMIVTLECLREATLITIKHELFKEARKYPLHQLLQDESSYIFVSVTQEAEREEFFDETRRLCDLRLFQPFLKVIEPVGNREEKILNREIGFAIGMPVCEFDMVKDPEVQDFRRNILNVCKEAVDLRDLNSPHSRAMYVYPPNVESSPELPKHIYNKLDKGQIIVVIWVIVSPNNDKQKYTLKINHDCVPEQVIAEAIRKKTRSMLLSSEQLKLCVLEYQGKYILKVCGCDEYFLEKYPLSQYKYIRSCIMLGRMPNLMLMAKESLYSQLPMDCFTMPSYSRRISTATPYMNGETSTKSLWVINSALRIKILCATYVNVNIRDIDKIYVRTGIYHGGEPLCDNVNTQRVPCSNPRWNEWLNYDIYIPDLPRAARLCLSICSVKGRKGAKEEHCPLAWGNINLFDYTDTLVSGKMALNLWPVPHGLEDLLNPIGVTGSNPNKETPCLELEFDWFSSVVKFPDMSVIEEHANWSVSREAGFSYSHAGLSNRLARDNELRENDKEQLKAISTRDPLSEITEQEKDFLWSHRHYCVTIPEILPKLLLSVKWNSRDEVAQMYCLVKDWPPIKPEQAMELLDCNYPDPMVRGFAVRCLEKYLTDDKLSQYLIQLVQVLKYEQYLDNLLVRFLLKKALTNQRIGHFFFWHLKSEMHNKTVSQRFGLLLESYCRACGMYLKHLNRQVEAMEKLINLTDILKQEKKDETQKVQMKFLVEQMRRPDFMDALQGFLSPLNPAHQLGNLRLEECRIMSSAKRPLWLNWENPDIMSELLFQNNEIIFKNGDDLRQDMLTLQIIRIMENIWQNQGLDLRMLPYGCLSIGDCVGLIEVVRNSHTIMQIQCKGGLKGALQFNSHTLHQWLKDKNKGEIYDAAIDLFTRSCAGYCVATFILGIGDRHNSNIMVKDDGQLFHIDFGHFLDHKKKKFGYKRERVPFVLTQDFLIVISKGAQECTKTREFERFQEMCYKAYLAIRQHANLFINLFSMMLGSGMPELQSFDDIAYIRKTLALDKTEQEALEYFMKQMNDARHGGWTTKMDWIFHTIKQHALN
Chain of H1047R PIK3CA enzyme (P27986 whole entry partner): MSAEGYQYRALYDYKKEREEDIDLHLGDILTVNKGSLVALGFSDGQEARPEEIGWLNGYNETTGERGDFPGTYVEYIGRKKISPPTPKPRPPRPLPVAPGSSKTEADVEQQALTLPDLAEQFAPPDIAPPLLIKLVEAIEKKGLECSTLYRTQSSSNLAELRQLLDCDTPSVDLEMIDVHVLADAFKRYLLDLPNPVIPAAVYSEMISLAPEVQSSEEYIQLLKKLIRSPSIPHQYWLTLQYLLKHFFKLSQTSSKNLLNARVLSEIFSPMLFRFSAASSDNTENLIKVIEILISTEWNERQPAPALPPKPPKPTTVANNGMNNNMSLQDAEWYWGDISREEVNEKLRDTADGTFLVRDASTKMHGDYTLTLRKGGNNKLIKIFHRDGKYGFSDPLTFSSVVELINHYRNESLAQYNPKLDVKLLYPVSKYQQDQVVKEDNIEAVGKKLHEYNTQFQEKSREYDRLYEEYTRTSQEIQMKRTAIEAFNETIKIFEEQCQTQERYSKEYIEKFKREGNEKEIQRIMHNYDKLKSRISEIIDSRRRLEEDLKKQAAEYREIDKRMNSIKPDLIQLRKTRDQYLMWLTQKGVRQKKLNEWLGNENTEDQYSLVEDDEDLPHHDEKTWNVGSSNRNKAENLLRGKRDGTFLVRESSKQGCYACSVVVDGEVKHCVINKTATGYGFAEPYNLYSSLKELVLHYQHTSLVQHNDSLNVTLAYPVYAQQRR

SMILES | IC50 (cells) [nM] | IC50 (H1047R PIK3CA enzyme) [nM]
O=C(Nc1cc(-c2ccc3c(c2)OCCO3)cc2c1C(c1cc(F)ccc1Cl)NC2=O)c1cc(F)cc(C(F)(F)F)c1 (stereo not shown) [Compound I-932] | 1000 to 5000 | 100 to 500
O=C(Nc1cc(-c2ccc(N3CCOCC3)nc2)cc2c1C(c1cc(F)ccc1Cl)NC2=O)c1cc(F)cc(C(F)(F)F)c1 (stereo not shown) [Compound I-929] | < 1000 | ≤ 100
O=C(Nc1cc(Nc2cc[nH]n2)cc2c1C(c1cc(F)ccc1Cl)NC2=O)c1cc(F)cc(C(F)(F)F)c1 (stereo not shown) [Compound I-1112] | < 1000 | ≤ 100
Cc1coc(Nc2cc(NC(=O)c3cc(F)cc(C(F)(F)F)c3)c3c(c2)C(=O)NC3c2cc(F)ccc2Cl)n1 (stereo not shown) [Compound I-964] | < 1000 | ≤ 100
O=C(Nc1cc(-c2ccc3ncnn3c2)cc2c1[C@@H](c1cc(F)c(F)cc1Cl)NC2=O)c1cc(F)cc(C(F)(F)F)c1 [Compound I-1061] | < 1000 | ≤ 100
Cc1ccccc1[C@@H]1NC(=O)c2cc(N)cc(NC(=O)c3nsc4ccccc34)c21 [Compound I-92] | < 1000 | ≤ 100
O=C(Nc1cc(-c2cncs2)cc2c1C(c1cc(F)ccc1Cl)NC2=O)c1cc(F)cc(C(F)(F)F)c1 (stereo not shown) [Compound I-1065] | < 1000 | ≤ 100
O=C1Cc2ccc(-c3cc(NC(=O)c4cc(F)cc(C(F)(F)F)c4)c4c(c3)C(=O)NC4c3cc(F)ccc3Cl)cc2N1 (stereo not shown) [Compound I-982] | < 1000 | ≤ 100
O=C(Nc1cc(-c2nccs2)cc2c1C(c1cc(F)ccc1Cl)NC2=O)c1cc(F)cc(C(F)(F)F)c1 (stereo not shown) [Compound I-921] | < 1000 | ≤ 100
O=C1N[C@@H](c2cc(F)ccc2Cl)c2c(NC(=O)N3C[C@](O)(C(F)(F)F)c4cc(F)ccc43)cc(F)cc21 (single isomer, unassigned) [Compound I-2630] | < 1000 | 1000 to 10000
O=C(Nc1cc(NC2=NCC(C(F)(F)F)O2)cc2c1C(c1cc(F)ccc1Cl)NC2=O)c1cc(F)cc(C(F)(F)F)c1 (stereo not shown) [Compound I-2297] | 1000 to 5000 | ≤ 100
O=C1N[C@@H](c2cc(F)ccc2Cl)c2c(NC(=O)N3C[C@@H](O)c4cc(F)ccc43)cccc21 (single isomer, unassigned) [Compound I-2127] | < 1000 | ≤ 100
Cn1cc(-c2cc(NC(=O)c3cc(F)cc(C(F)(F)F)c3)c3c(c2)C(=O)NC3c2cc(F)ccc2C(F)F)cn1 (stereo not shown) [Compound I-220] | < 1000 | ≤ 100
NCc1cc(NC(=O)N2C[C@@](O)(C(F)F)c3cc(F)ccc32)c2c(c1)C(=O)N[C@@H]2c1cc(F)ccc1Cl (single isomer, unassigned) [Compound I-2694] | 1000 to 5000 | ≤ 100
Cc1nc2ccc(-c3cc(NC(=O)c4cc(F)cc(C(F)(F)F)c4)c4c(c3)C(=O)NC4c3cc(F)ccc3Cl)cn2n1 (stereo not shown) [Compound I-1123] | < 1000 | ≤ 100
CC(C)(O)Cn1cc(-c2cc(NC(=O)c3cc(F)cc(C(F)(F)F)c3)c3c(c2)C(=O)NC3c2cc(F)ccc2Cl)cn1 (stereo not shown) [Compound I-968] | < 1000 | ≤ 100
O=C1NC(c2cc(F)ccc2Cl)c2c(NC(=O)N3CCc4cc(F)ccc43)cc(-c3cnn(C(F)F)c3)cc21 (stereo not shown) [Compound I-2300] | 1000 to 5000 | ≤ 100
Cc1ccccc1[C@@H]1NC(=O)c2cc(C(=O)NCC(F)F)cc(NC(=O)c3nsc4ccccc34)c21 [Compound I-166] | < 1000 | ≤ 100
O=C1NC(c2cc(F)ccc2Cl)c2c(NC(=O)c3nsc4ccccc34)cccc21 (stereo not shown) [Compound I-83] | < 1000 | ≤ 100
O=C(Nc1cc(-c2nc3ccccc3[nH]2)cc2c1C(c1cc(F)ccc1Cl)NC2=O)c1cc(F)cc(C(F)(F)F)c1 (stereo not shown) [Compound I-1101] | < 1000 | ≤ 100
O=C(Nc1cc(-c2ccn[nH]2)cc2c1[C@H](c1cc(F)ccc1Cl)NC2=O)c1cc(F)cc(C(F)(F)F)c1 [Compound I-865] | < 1000 | ≤ 100
O=C(Nc1cc(Nc2nnco2)cc2c1C(c1cc(F)ccc1Cl)NC2=O)c1cc(F)cc(C(F)(F)F)c1 (stereo not shown) [Compound I-1099] | < 1000 | ≤ 100
O=C(Nc1cc(-c2cnsc2)cc2c1C(c1cc(F)ccc1Cl)NC2=O)c1cc(F)cc(C(F)(F)F)c1 (stereo not shown) [Compound I-1068] | < 1000 | ≤ 100
COc1nc(-c2cc(NC(=O)c3cc(F)cc(C(F)(F)F)c3)c3c(c2)C(=O)NC3c2cc(F)ccc2Cl)cs1 (stereo not shown) [Compound I-1066] | 1000 to 5000 | ≤ 100
O=C(Nc1cc(-n2cncn2)cc2c1C(c1cc(F)ccc1Cl)NC2=O)c1cc(F)cc(C(F)(F)F)c1 (stereo not shown) [Compound I-1086] | < 1000 | ≤ 100

SMILES | IC50 (cells) [nM] | IC50 (H1047R PIK3CA enzyme) [nM]
Cc1cnccc1-c1cc(NC(=O)c2cc(F)cc(C(F)(F)F)c2)c2c(c1)C(=O)N[C@H]2c1cc(F)ccc1Cl (stereo in doubt) [Compound I-1010] | < 1000 | ≤ 100
Nc1cc(NC(=O)N2C[C@@H](O)c3cc(F)ccc32)c2c(c1)C(=O)N[C@@H]2c1cc(F)ccc1Cl (single isomer, unassigned) [Compound I-2410] | < 1000 | ≤ 100
N#Cc1cnn(Cc2cc(NC(=O)N3C[C@](O)(C(F)(F)F)c4cc(F)ccc43)c3c(c2)C(=O)N[C@@H]3c2cc(F)ccc2Cl)c1 (single isomer, unassigned) [Compound I-2669] | < 1000 | ≤ 100
NCCc1cc(NC(=O)N2C[C@@](O)(C(F)(F)F)c3cc(F)ccc32)c2c(c1)C(=O)N[C@H]2c1cc(F)ccc1Cl (single isomer, unassigned) [Compound I-2581] | 10000 to 36000 | ≤ 100
NCc1cc(NC(=O)N2CC(O)(C(F)(F)F)c3cc(F)ccc32)c2c(c1)C(=O)NC2c1cc(F)ccc1Cl (stereo not shown) [Compound I-2568] | 10000 to 36000 | ≤ 100
CC(=O)Nc1cc(NC(=O)c2csc3ccccc23)c2c(c1)C(=O)NC2c1ccccc1C (stereo not shown) [Compound I-52] | < 1000 | ≤ 100
CS(=N)(=O)Cc1cc(NC(=O)c2cc(F)cc(C(F)(F)F)c2)c2c(c1)C(=O)NC2c1cc(F)ccc1Cl (stereo not shown) [Compound I-1018] | < 1000 | ≤ 100
O=C(Nc1cc(-c2ccnc3[nH]ccc23)cc2c1C(c1cc(F)ccc1Cl)NC2=O)c1cc(F)cc(C(F)(F)F)c1 (stereo not shown) [Compound I-1049] | < 1000 | ≤ 100
N#CCc1cc(NC(=O)N2C[C@](O)(C(F)F)c3cc(F)ccc32)c2c(c1)C(=O)N[C@H]2c1cc(F)ccc1Cl (single isomer, unassigned) [Compound I-2601] | < 1000 | ≤ 100
O=C1NC(c2cc(F)ccc2Cl)c2c(Nc3nccc4c(C(F)(F)F)cc(F)cc34)cc(Br)cc21 (stereo not shown) [Compound I-978] | < 1000 | ≤ 100
N#CN1CC(c2cc(NC(=O)c3cc(F)cc(C(F)(F)F)c3)c3c(c2)C(=O)NC3c2cc(F)ccc2Cl)C1 (stereo not shown) [Compound I-1157] | 5000 to 10000 | ≤ 100
CC(=O)Nc1cc(NC(=O)N2C[C@](O)(C(F)(F)F)c3cc(F)ccc32)c2c(c1)C(=O)N[C@@H]2c1cc(F)ccc1Cl (single isomer, unassigned) [Compound I-2573] | < 1000 | ≤ 100
O=C(Nc1cc(-c2cn3ncnc3cn2)cc2c1[C@H](c1cc(F)ccc1Cl)NC2=O)c1cc(F)cc(C(F)(F)F)c1 [Compound I-1441] | < 1000 | ≤ 100
N#Cc1cc(NC(=O)N2CC(O)(C(F)(F)F)c3cc(F)ccc32)c2c(c1)C(=O)NC2c1cc(F)ccc1Cl (stereo not shown) [Compound I-2469] | < 1000 | ≤ 100
O=C1N[C@@H](c2cc(F)ccc2Cl)c2c(NC(=O)N3C[C@](O)(C(F)(F)F)c4cc(F)ccc43)cc(Cl)nc21 (single isomer, unassigned) [Compound I-2704] | < 1000 | ≤ 100
CNC(=O)c1cc(NC(=O)c2csc3ccccc23)c2c(c1)C(=O)N[C@H]2c1ccccc1C [Compound I-76, (S)-7-(Benzo[b]thiophene-3-carboxamido)-N-methyl-3-oxo-1-(o-tolyl)isoindoline-5-carboxamide] | < 1000 | ≤ 100
O=C(Nc1cc(-c2ccncc2F)cc2c1[C@@H](c1cc(F)ccc1Cl)NC2=O)c1cc(F)cc(C(F)(F)F)c1 (stereo in doubt) [Compound I-986] | < 1000 | ≤ 100
Cc1ncncc1-c1cc(NC(=O)c2cc(F)cc(C(F)(F)F)c2)c2c(c1)C(=O)NC2c1cc(F)ccc1Cl (stereo not shown) [Compound I-985] | < 1000 | ≤ 100
O=C(Nc1cc(-c2ccc3ncnn3c2)cc2c1[C@H](c1cc(F)ccc1C(F)F)NC2=O)c1cc(F)cc(C(F)(F)F)c1 (stereo in doubt) [Compound I-1056] | < 1000 | ≤ 100
N#CCc1ccc(NC(=O)N2C[C@](O)(C(F)(F)F)c3cc(F)ccc32)c2c1C(=O)N[C@H]2c1cc(F)ccc1Cl (single isomer, unassigned) [Compound I-2614] | < 1000 | ≤ 100
O=C1NC(c2cc(F)ccc2Cl)c2c(NC(=O)N3CC(O)(C(F)F)c4ccccc43)cccc21 (mixture of isomers) [Compound I-2423] | 1000 to 5000 | ≤ 100
O=C(Nc1cc(-c2cnc3ncnn3c2)cc2c1C(c1cc(F)ccc1Cl)NC2=O)c1cc(F)cc(C(F)(F)F)c1 (stereo not shown) [Compound I-969] | < 1000 | ≤ 100
O=C1NC(c2cc(F)ccc2Cl)c2c(NC(=O)N3CC(O)(C(F)(F)F)c4cc(F)ccc43)cccc21 (stereo not shown) [Compound I-2474] | 1000 to 5000 | ≤ 100
Cc1nccn1-c1cc(NC(=O)N2C[C@@](O)(C(F)(F)F)c3cc(F)ccc32)c2c(c1)C(=O)N[C@@H]2c1cc(F)ccc1Cl (single isomer, unassigned) [Compound I-2661] | < 1000 | ≤ 100
N#CC1(COc2cc(NC(=O)N3C[C@@H](O)c4cc(F)ccc43)c3c(c2)C(=O)N[C@@H]3c2cc(F)ccc2Cl)CC1 (single isomer, unassigned) [Compound I-2552] | 1000 to 5000 | ≤ 100
